Where a name gives a salt, the structure may show the parent alone. Square brackets hold non-standard residues; d marks the D form. Peptide text beside a SMILES is read from it. dPhe(4-Cl) = N[C@H](Cc1ccc(Cl)cc1)C(=O)O; d2Nal = N[C@H](Cc1ccc2ccccc2c1)C(=O)O; dCit = NC(=O)NCCC[C@@H](N)C(=O)O; d3Pal = N[C@H](Cc1cccnc1)C(=O)O
Experiments:
C57B1/6 mice = experiment: PPI in MK-801 pharmacological model of schizophrenia; format: in vivo, mouse; conditions: acute MK-801 0.1 mg/kg i.p., PPI 15 min later, vs naive mice
Method: (§1) Prepulse Inhibition (PPI). PPI testing was performed within startle chambers purchased from Med Associates Inc (Med Associates, St. Albans, Vt., USA). PPI was analyzed as described previously (Kipnis et al., 2004). Briefly, during a period of acclimation, a 65-dB background noise was applied for 5-min, and continued throughout the test session. All sessions for testing of PPI consisted of startle trials (pulse alone, 40-ms, 120-dB), prepulse trials (prepulse 20-ms, 69, 73, 78, or 81 dB followed by a (100-ms delay) pulse), and no-stimulus trials. All sessions were presented in pseudo-random order. The average time between trials was 15 s (range 12-30 s). PPI was calculated as: % PPI=100−{[(startle response for prepulse+pulse)/(startle response for pulse-alone)]×100}. In all the experiments, there were no significant differences between groups in trials of startle reactivity to pulse alone, and in no-stimulation trials. Data from no-stimulation trials are not included in the results because the values obtained were negligible relative to values from trials containing startle stimuli. Reduced PPI is associated with schizophrenia-related behavior. […]
To further establish the antipsychotic effect of Kp-10, we evaluated its ability to overcome psychotic symptoms induced by the psycho-mimetic agent, MK-801 (N-methyl-D-aspartate (NMDA) antagonist), which induces neurotransmitter imbalance. […]

naive C57B1/6 mice [1] = conditions: neurotensin receptor antagonist alone (Binder et al., 2001); cited from earlier work
naive C57B1/6 mice [2] = experiment: PPI in naive C57B1/6 mice; format: in vivo, mouse; conditions: naive animals, GnRH receptor antagonist alone
Method: Prepulse Inhibition (PPI). PPI testing was performed within startle chambers purchased from Med Associates Inc (Med Associates, St. Albans, Vt., USA). […] Briefly, during a period of acclimation, a 65-dB background noise was applied for 5-min, and continued throughout the test session. All sessions for testing of PPI consisted of startle trials (pulse alone, 40-ms, 120-dB), prepulse trials (prepulse 20-ms, 69, 73, 78, or 81 dB followed by a (100-ms delay) pulse), and no-stimulus trials. All sessions were presented in pseudo-random order. The average time between trials was 15 s (range 12-30 s). PPI was calculated as: % PPI=100−{[(startle response for prepulse+pulse)/(startle response for pulse-alone)]×100}. […] Data from no-stimulation trials are not included in the results because the values obtained were negligible relative to values from trials containing startle stimuli.
Neurotensin receptor antagonist SR142948 (TOCRIS COOKSON LTD) was used at 100 μg/kg 60 min before the PPI analysis.
GnRH receptor antagonist Cetrorelix Acetate (Cetrotide™, Anaspec Inc. Fremont, Calif.). Control mice were administered the same volume of PBS.
To examine whether Kp-10 can elevate PPI in naïve mice in a dose dependent manner, we analyzed PPI in C57B1/6 mice that were injected i.p with 100 μl of 1/10/100 μM Kp-10 (SEQ ID NO:3).

[3] = tested on: poly I:C rat model for schizophrenia; conditions: prophylactic treatment in peri-adolescence; cited from earlier work
[4] = tested on: offspring of poly I:C treated dams; experiment: PPI in offspring of poly I:C treated dams (mouse model for schizophrenia); format: in vivo; conditions: pregnant C57B1/6 mice 4 mg/kg poly I:C, vs saline
Method: (§2) Poly I:C administration. Rats or mice were bred, and the first day after copulation was defined as day 1 of pregnancy. On gestation day 15, pregnant animals were injected intravenously with 4.0 mg/kg poly I:C (Sigma-Aldrich, Israel) dissolved in saline, or an equivalent volume of saline as a control. Both rats and mice received the same protocol of poly I:C administration.
Prepulse Inhibition (PPI). PPI testing was performed within startle chambers purchased from Med Associates Inc (Med Associates, St. Albans, Vt., USA). PPI was analyzed as described previously (Kipnis et al., 2004). Briefly, during a period of acclimation, a 65-dB background noise was applied for 5-min, and continued throughout the test session. All sessions for testing of PPI consisted of startle trials (pulse alone, 40-ms, 120-dB), prepulse trials (prepulse 20-ms, 69, 73, 78, or 81 dB followed by a (100-ms delay) pulse), and no-stimulus trials. All sessions were presented in pseudo-random order. The average time between trials was 15 s (range 12-30 s). PPI was calculated as: % PPI=100−{[(startle response for prepulse+pulse)/(startle response for pulse-alone)]×100}. In all the experiments, there were no significant differences between groups in trials of startle reactivity to pulse alone, and in no-stimulation trials. Data from no-stimulation trials are not included in the results because the values obtained were negligible relative to values from trials containing startle stimuli. Reduced PPI is associated with schizophrenia-related behavior. The same protocol was used in mice and rats (FIG. 1A).
Kisspeptin treatment. Mice were injected i.p with 100 μl of 1/10/100 μM Kp-10 peptide (SEQ ID NO:3) (synthesized at the Weizmann Institute of Science, or Sigma-Aldrich, Israel) dissolved in PBS, 30 minutes before the PPI analysis.
The ability of a normal lymphocyte population to reverse abnormal PPI behavior in immune deficient mice, encouraged us to test whether immune cells derived from the offspring of poly I:C treated dams would reverse the abnormal behavior of SCID mice in the PPI test. […]

lymphocytes = experiment: Lymphocyte proliferation assay after MBP68-86 vaccination; format: cell-based, Lewis rats; conditions: offspring after prenatal poly I:C treatment
Lewis rats [5] = experiment: Experimental autoimmune encephalomyelitis (EAE); format: in vivo; conditions: female offspring after prenatal poly I:C treatment, MBP68-86 immunization
Lewis rats [6] = experiment: PPI in offspring of poly I:C treated Lewis rats; format: in vivo; conditions: pregnant Lewis rats 4 mg/kg poly I:C, vs progeny of saline-treated animals
Method: as §2
as §1, with “trials.” for “trials. Data from no-stimulation trials are not included in the results because the values obtained were negligible relative to values from trials containing startle stimuli. Reduced PPI is associated with schizophrenia-related behavior.”

BDNF = experiment: qPCR of BDNF transcripts in hippocampus; format: in vivo, mouse; conditions: mRNA, offspring of poly I:C treated dams treated at 8 weeks with Kp-10 or PBS
Method: RNA purification, cDNA synthesis, reverse transcription PCR, and real-time quantitative PCR analysis. For RNA expression analysis, cells from whole hippocampi were extracted with TRI Reagent (MRC, Cincinnati, Ohio), and total cellular RNA was purified from the lysates using the RNeasy kit (Qiagen, Hilden, Germany). RNA (1 μg) was converted to cDNA using SuperScript II (Promega, Madison, Wis.). The amplification cycle was 95° C. for 5 s, 60° C. for 20 s, and 72° C. for 15 s.
The following primers were used: […]
To understand what is the mechanism behind the prophylactic treatment of Kp-10 we examined the expression of total brain-derived neurotrophic factor (BDNF) and its exon transcripts 1-4 according to Zajac et al. (2010). […] Recently, association between a BDNF variant and childhood-onset mood disorder was established (Strauss et al., 2005). Therefore, we studied mRNA expression of a few BDNF transcripts in the hippocampus of offspring of PBS treated dams (n=5) compared to offspring of poly I:C treated dams, which were treated at 8 weeks with either Kp-10 (n=6) or PBS (n=6) (Table 3). […] Treatment with Kp-10 at 8 weeks of age induced an increase in the expression of BDNF1 transcript to the normal level (Table 3(ii)). […] In addition, no significant difference was found between the groups in the expression of BDNF transcripts 3 and 4 (Table 3(iv and v)). […] The involvement of BDNF in schizophrenia and its effect on PPI levels are still a debate. Our observations of changes in expression of selective forms of BDNF might explain this apparent dichotomy.

KiSS-1 = experiment: qPCR of KiSS-1 mRNA in hippocampus; format: in vivo, mouse; conditions: adult poly I:C affected mice vs age-matched controls

With `C[C@]12N[C@H](Cc3ccccc31)c1ccccc12` [MK-801, [+]-5-methyl-10,11-dihydro-5H-dibenzo-[a,d]-cyclohepten-5,10-imine hydrogen maleate, reference compound] the PPI response (C57B1/6 mice) was “significantly reduced PPI response”.
For `COc1cccc(OC)c1-c1cc(C(=O)NC2(C(=O)O)C3CC4CC(C3)CC2C4)nn1-c1ccc(C(=O)N(C)CCCN(C)C)cc1C(C)C` (centres unmarked) [NTA], the PPI levels (naive C57B1/6 mice [1]) is given as “does not affect PPI levels”.
For `CC(=O)N[C@H](Cc1ccc2ccccc2c1)C(=O)N[C@H](Cc1ccc(Cl)cc1)C(=O)N[C@H](Cc1cccnc1)C(=O)N[C@@H](CO)C(=O)N[C@@H](Cc1ccc(O)cc1)C(=O)N[C@H](CCCNC(N)=O)C(=O)N[C@@H](CC(C)C)C(=O)N[C@@H](CCCNC(=N)N)C(=O)N1CCC[C@H]1C(=O)N[C@H](C)C(N)=O` [Cetrotide™, Cetrorelix Acetate, reference compound] (Ac-[d2Nal][dPhe(4-Cl)][d3Pal]SY[dCit]LRP[dA]-NH2), the PPI (naive C57B1/6 mice [2]) was “did not affect PPI”.
For `Cc1nc2n(c(=O)c1CCN1CCC(c3noc4cc(F)ccc34)CC1)CCCC2` [Risperidone], the “onset of psychotic symptoms and abnormal brain development” value [3] is listed as “prevented the onset psychotic symptoms and abnormal brain development”.
For “polyriboinosinic-polyribocytidylic acid [poly I:C]”, the “PPI in adult offspring” value [4] was “reduced PPI”, the “Lymphocyte proliferation (PI ± SD)” value (lymphocytes; antigen Con-A) was 126 ± 67 and the “Lymphocyte proliferation (PI ± SD)” value (lymphocytes; antigen MBP68-86) was 1.0 ± 0.11. The “Lymphocyte proliferation (PI ± SD)” value (lymphocytes; antigen Ova) was 1.2 ± 0.09, the “Duration of EAE (day ± SEM)” value (Lewis rats [5]) was 5.08 ± 0.3 days and the “Onset of EAE (day ± SEM)” value (Lewis rats [5]) was 11.17 ± 0.2 days. For the same compound, the “PPI in adult offspring” value (Lewis rats [6]) was “reduction in PPI”, the “Expression of BDNF1 transcript” value (BDNF) was 1.2 ± 0.3 and the “Expression of BDNF2 transcript” value (BDNF) was 5.7 ± 0.1. The “Expression of BDNF3 transcript” value (BDNF) was 6.2 ± 0.9, the “Expression of BDNF4 transcript” value (BDNF) was 7.4 ± 1 and the “Expression of BDNF transcript (total BDNF)” value (BDNF) was 1.7 ± 0.6. For the same compound, the “KiSS-1 mRNA levels in hippocampus” value (KiSS-1) was “reduction in KiSS-1 mRNA levels”.
